Test results published in publication PMC11393453, “Phosphorylation of tau at a single residue inhibits binding to the E3 ubiquitin ligase, CHIP” (Nature Communications, 2024).
Where two headings read alike, the source gives them in different places.

Legend:
CHIP [1] = settings: cited from earlier work
Source text: Moreover, the appearance of pS416 and tauC3 are coincident in AD patient samples (see Fig. 5), supporting a putative role of these PTMs in tau proteostasis. Based on these collective findings and in concert with observations from the literature, we propose a model to explain the hierarchy of these tau PTMs (Fig. 6D). In this speculative model, FL tau can either be phosphorylated by MARK2 or CaMKII ...

CHIP [2] = test: CHIP-tau binding ELISA (tau proteoforms on immobilized CHIP)

## p.tau: full length phosphorylated tau produced in Sf9 insect cells
CHIP [1]
  fold better binding of CHIP than to unmodified FL tau: 10 fold
CHIP [2]; Fig 1C,D, tau proteoform binding to immobilized CHIP (1 µM coated), 3 h RT, technical triplicate, ± SD
  Kd: ~0.5 µM
CHIP [2]; Fig 1D, replicate 1
  Kd: 0.433 µM
CHIP [2]; Fig 1D, replicate 2
  Kd: 0.464 µM
CHIP [2]; Fig 1D, replicate 3
  Kd: 0.471 µM
CHIP [2]; read-out: transformed Kd, Fig 1D, replicate 1
  Kd: 0.433 µM
CHIP [2]; read-out: transformed Kd, Fig 1D, replicate 2
  Kd: 0.464 µM
CHIP [2]; read-out: transformed Kd, Fig 1D, replicate 3
  Kd: 0.471 µM
